Experimental data reported in patent publication US20250195510A1, “NOVEL METHODS” (priority 2022, published 2025).

Legend:
[1] = tested on: patients with schizophrenia; experiment: Phase 3 clinical trial in schizophrenia with acute exacerbation of psychosis; format: in vivo, human; details: 60 mg or 40 mg lumateperone tosylate once daily for 28 days vs placebo
Method: A randomized, double-blind, placebo-controlled, phase 3 clinical trial was conducted with 450 patients with schizophrenia, aged 18 to 60 years, who were experiencing an acute exacerbation of psychosis. Patients were included if they were experiencing an acute exacerbation of psychosis, defined as a total score on the Brief Psychiatric Rating Scale of […] or higher, with a score of 4 or higher on 2 or more positive symptoms, and onset of the acute episode within 4 weeks of screening. Patients were required to have a score of 4 or higher, indicating moderate to severe disease severity, on the Clinical Global Impression-Severity of Illness (CGI-S) at screening and baseline. […]
The primary efficacy end point was mean change from baseline to day 28 in the Positive and Negative Syndrome Scale (PANSS) total score versus placebo. […] The PANSS subscale scores, social function, safety, and tolerability were also assessed. Primary and key secondary efficacy measures were assessed weekly. Safety was assessed by treatment-emergent adverse events (TEAEs), modified physical examinations, 12-lead electrocardiograms (ECGs), vital signs, and clinical laboratory tests (blood and urine samples for clinical laboratory analysis were collected from all subjects upon screening and on Days 1, 8, 28, and 33, following overnight fast).

[2] = tested on: hippocampal gene expression (NanoString gene sets); experiment: NanoString nCounter hippocampal gene expression after coinjection of LPS and lumateperone; format: in vivo, mouse
Text: NanoString. The mouse neuropathology panel includes 770 genes associated with themes of neurotransmission, neuron-glia interaction, neuroplasticity, cell structure integrity, neuroinflammation and metabolism. A total of 13 housekeeping genes are used for expression normalization (Aars: NM_146217.4, Asb10: NM_080444.4, Ccdc127: NM_024201.3, Cnot10: NM_153585.5, Csnk2a2: NM_009974.3, Fam104a: NM_138598.5, Gusb: NM_010368.1, Lars: NM_134137.2, Mtol: NM_026658.2, Supt7l: NM_028150.1, Tada2b: NM_001170454.1:3224, Tbp: NM_013684.3:70, and Xpnpepl: NM_133216.3:1826, see FIG. 1-1). Hippocampal RNA is extracted using the Qiagen microkit (Qiagen) and is evaluated by the Agilent 2100 Bioanalyzer (Agilent Technologies, Santa Clara, CA) to assess RNA concentration, quality, and integrity. Sample preparation, hybridization, and detection (100 ng per sample, n=5-6 per group) are carried out according to NanoString manufacturer's instructions (NanoString Technologies, Seattle, WA). The normalized data are transformed to log 2 score to express the fold change. NanoString results (raw and normalized counts) are derived from RCC files using the nSolver software (version 2.6; NanoString Technologies). A complementary gene software analysis tool, ROSALIND® Advanced Analysis Software (NanoString Technologies), is also used, which provides comprehensive free cloud-based data analysis for nCounter data by directly analyzing raw RCC files generated from NanoString. Data are imported into ROSALIND® Advanced Analysis Software for normalization, calculation of fold-changes, P values, identification of enriched pathways, and heatmaps.
The NanoString platform has been effectively used to quantitatively measure in vivo gene expression of target genes in several neuropathological mouse models.
It is calculated similarly to a unidirected global significance score, but it takes into account the sign of the t-statistic. Scores were calculated by nSolver software, using the control group as a reference.
Next, using ROSALIND® Advanced Analysis Software and a filter set to P<.

[3] = Inflammation gene, LPS 500 μg/kg + Luma 3 mg/kg, 2 h
[4] = Microglia gene, LPS 500 μg/kg + Luma 3 mg/kg, 2 h
[5] = Neuroprotect gene, LPS 500 μg/kg + Luma 3 mg/kg, 2 h

CN1CCN2c3c(cccc31)[C@@H]1CN(CCCC(=O)c3ccc(F)cc3)CC[C@@H]12 [Lumateperone, 4-((6bR,10aS)-3-methyl-2,3,6b,9,10,10a-hexahydro-1H-pyrido[3′,4′: 4,5]pyrrolo[1,2,3-de]quinoxaline-8 (7H)-yl)-1-(4-fluorophenyl)-1-butanone]
efficacy on symptoms of schizophrenia (PANSS total score, CGI-S) [1]: effective for improving the symptoms of schizophrenia | safety and tolerability [1]: favorable safety profile | Casp4 hippocampal expression, Log2, LPS + Luma vs LPS [2, 3]: −2.24 | Ccr2 hippocampal expression, Log2, LPS + Luma vs LPS [2, 3]: −1.71 | Ikbkb hippocampal expression, Log2, LPS + Luma vs LPS [2, 3]: −0.132 | Il1b hippocampal expression, Log2, LPS + Luma vs LPS [2, 3]: −1.42 | Il1r1 hippocampal expression, Log2, LPS + Luma vs LPS [2, 3]: −0.309 | Lrg1 hippocampal expression, Log2, LPS + Luma vs LPS [2, 3]: −1.67 | Ly6a hippocampal expression, Log2, LPS + Luma vs LPS [2, 3]: −0.925 | Myd88 hippocampal expression, Log2, LPS + Luma vs LPS [2, 3]: −0.433 | Nfkb2 hippocampal expression, Log2, LPS + Luma vs LPS [2, 3]: −0.972 | Osmr hippocampal expression, Log2, LPS + Luma vs LPS [2, 3]: −1.21 | Socs3 hippocampal expression, Log2, LPS + Luma vs LPS [2, 3]: −1.57 | Tnfrsf1a hippocampal expression, Log2, LPS + Luma vs LPS [2, 3]: −0.434 | Tnfrsf1b hippocampal expression, Log2, LPS + Luma vs LPS [2, 3]: −0.31 | Directed global significance score vs control group, gene set Oligodendrocyte function ([2]; LPS 500 μg/kg + Luma 3 mg/kg coinjected, 2 h, LPS alone 0.181): 0.48 | Directed global significance score vs control group, gene set Insulin signaling ([2]; LPS 500 μg/kg + Luma 3 mg/kg coinjected, 2 h, LPS alone 0.28): 0.809 | Directed global significance score vs control group, gene set Epigenetic regulation ([2]; LPS 500 μg/kg + Luma 3 mg/kg coinjected, 2 h, LPS alone 0.312): 0.892 | Directed global significance score vs control group, gene set Microglia function ([2]; LPS 500 μg/kg + Luma 3 mg/kg coinjected, 2 h, LPS alone 0.377): 0.915 | Directed global significance score vs control group, gene set Cellular stress ([2]; LPS 500 μg/kg + Luma 3 mg/kg coinjected, 2 h, LPS alone 0.499): 0.813 | Directed global significance score vs control group, gene set Carbohydrate metabolism ([2]; LPS 500 μg/kg + Luma 3 mg/kg coinjected, 2 h, LPS alone 0.507): 0.668 | Directed global significance score vs control group, gene set Adaptive immune response ([2]; LPS 500 μg/kg + Luma 3 mg/kg coinjected, 2 h, LPS alone 0.571): 0.938 | Directed global significance score vs control group, gene set DNA damage ([2]; LPS 500 μg/kg + Luma 3 mg/kg coinjected, 2 h, LPS alone 0.578): 0.042 | Directed global significance score vs control group, gene set Autophagy ([2]; LPS 500 μg/kg + Luma 3 mg/kg coinjected, 2 h, LPS alone 0.588): 0.548 | Directed global significance score vs control group, gene set Growth factor signaling ([2]; LPS 500 μg/kg + Luma 3 mg/kg coinjected, 2 h, LPS alone 0.76): 0.698 | Directed global significance score vs control group, gene set Notch ([2]; LPS 500 μg/kg + Luma 3 mg/kg coinjected, 2 h, LPS alone 0.876): 1.05 | Directed global significance score vs control group, gene set Apoptosis ([2]; LPS 500 μg/kg + Luma 3 mg/kg coinjected, 2 h, LPS alone 0.915): −0.453 | Directed global significance score vs control group, gene set Innate immune response ([2]; LPS 500 μg/kg + Luma 3 mg/kg coinjected, 2 h, LPS alone 0.939): −0.655 | Directed global significance score vs control group, gene set Cytokine signaling ([2]; LPS 500 μg/kg + Luma 3 mg/kg coinjected, 2 h, LPS alone 0.993): −0.599 | Directed global significance score vs control group, gene set Inflammatory signaling ([2]; LPS 500 μg/kg + Luma 3 mg/kg coinjected, 2 h, LPS alone 1.086): −0.93 | Directed global significance score vs control group, gene set NF-kB ([2]; LPS 500 μg/kg + Luma 3 mg/kg coinjected, 2 h, LPS alone 1.215): −0.689 | Directed global significance score vs control group, gene set Astrocyte function ([2]; LPS 500 μg/kg + Luma 3 mg/kg coinjected, 2 h, LPS alone 1.391): −0.308 | Directed global significance score vs control group, gene set Angiogenesis ([2]; LPS 500 μg/kg + Luma 3 mg/kg coinjected, 2 h, LPS alone −0.144): 0.891 | Directed global significance score vs control group, gene set Cell cycle ([2]; LPS 500 μg/kg + Luma 3 mg/kg coinjected, 2 h, LPS alone −0.148): 0.385 | Directed global significance score vs control group, gene set Lipid metabolism ([2]; LPS 500 μg/kg + Luma 3 mg/kg coinjected, 2 h, LPS alone −0.192): 0.89 | Directed global significance score vs control group, gene set Neurons and neurotransmission ([2]; LPS 500 μg/kg + Luma 3 mg/kg coinjected, 2 h, LPS alone −0.422): 0.979 | Directed global significance score vs control group, gene set Wnt ([2]; LPS 500 μg/kg + Luma 3 mg/kg coinjected, 2 h, LPS alone −0.476): 1.186 | Directed global significance score vs control group, gene set Matrix remodeling ([2]; LPS 500 μg/kg + Luma 3 mg/kg coinjected, 2 h, LPS alone −0.583): 0.447 | genes that promote inflammation (e.g., Osmr, Tnfrsf1a, Tnfrsf11b, Prl, Il1r1), ROSALIND analysis ([2]; LPS+Luma versus LPS alone, filter P<.04999): significantly downregulates | Directed global significance score vs control group, gene set Adaptive immune response ([2]; Luma alone): 0.344 | Directed global significance score vs control group, gene set Angiogenesis ([2]; Luma alone): 0.616 | Directed global significance score vs control group, gene set Apoptosis ([2]; Luma alone): −0.442 | Directed global significance score vs control group, gene set Astrocyte function ([2]; Luma alone): −0.837 | Directed global significance score vs control group, gene set Autophagy ([2]; Luma alone): −0.731 | Directed global significance score vs control group, gene set Carbohydrate metabolism ([2]; Luma alone): −0.837 | Directed global significance score vs control group, gene set Cell cycle ([2]; Luma alone): −0.75 | Directed global significance score vs control group, gene set Cellular stress ([2]; Luma alone): −0.432 | Directed global significance score vs control group, gene set Cytokine signaling ([2]; Luma alone): −0.543 | Directed global significance score vs control group, gene set DNA damage ([2]; Luma alone): −0.614 | Directed global significance score vs control group, gene set Epigenetic regulation ([2]; Luma alone): 0.729 | Directed global significance score vs control group, gene set Growth factor signaling ([2]; Luma alone): 0.226 | Directed global significance score vs control group, gene set Inflammatory signaling ([2]; Luma alone): −1.032 | Directed global significance score vs control group, gene set Innate immune response ([2]; Luma alone): −0.611 | Directed global significance score vs control group, gene set Insulin signaling ([2]; Luma alone): 0.858 | Directed global significance score vs control group, gene set Lipid metabolism ([2]; Luma alone): −0.818 | Directed global significance score vs control group, gene set Matrix remodeling ([2]; Luma alone): −0.4 | Directed global significance score vs control group, gene set Microglia function ([2]; Luma alone): 0.466 | Directed global significance score vs control group, gene set NF-kB ([2]; Luma alone): −0.499 | Directed global significance score vs control group, gene set Neurons and neurotransmission ([2]; Luma alone): 0.435 | Directed global significance score vs control group, gene set Notch ([2]; Luma alone): 0.834 | Directed global significance score vs control group, gene set Oligodendrocyte function ([2]; Luma alone): −1.176 | Directed global significance score vs control group, gene set Wnt ([2]; Luma alone): 0.9 | Cd36 hippocampal expression, Log2, LPS + Luma vs LPS [2, 4]: 0.332 | Cx3cr1 hippocampal expression, Log2, LPS + Luma vs LPS [2, 4]: 0.231 | Maff hippocampal expression, Log2, LPS + Luma vs LPS [2, 4]: 1.21 | P2ry12 hippocampal expression, Log2, LPS + Luma vs LPS [2, 4]: 0.14 | Ptgs2 hippocampal expression, Log2, LPS + Luma vs LPS [2, 4]: −0.358 | Tmem100 hippocampal expression, Log2, LPS + Luma vs LPS [2, 4]: 0.186 | Tmem144 hippocampal expression, Log2, LPS + Luma vs LPS [2, 4]: 0.227 | Cldn5 hippocampal expression, Log2, LPS + Luma vs LPS [2, 5]: 0.812 | Egr1 hippocampal expression, Log2, LPS + Luma vs LPS [2, 5]: 0.87 | Fos hippocampal expression, Log2, LPS + Luma vs LPS [2, 5]: 2.27 | Ngf hippocampal expression, Log2, LPS + Luma vs LPS [2, 5]: 0.126 | Vegfa hippocampal expression, Log2, LPS + Luma vs LPS [2, 5]: 0.227
